# Measured values reported in ChEMBL document CHEMBL1132530, “Picking the S1, S1' and S2' pockets of matrix metalloproteinases. A niche for potent acyclic sulfonamide inhibitors” (Bioorg Med Chem Lett, 1999).
# Tests used:
# [1] = target: 72 kDa type IV collagenase (Homo sapiens, UniProt P08253); assay: (§1) Inhibition of matrix metalloprotease-2
# [2] = target: Matrix metalloproteinase-9 (Homo sapiens, UniProt P14780); assay: Inhibition of matrix metalloprotease-9
# Interstitial collagenase = target: T1, Interstitial collagenase (Homo sapiens, UniProt P03956); assay: Inhibition of matrix metalloprotease-1
# T1 sequence (P03956 whole entry): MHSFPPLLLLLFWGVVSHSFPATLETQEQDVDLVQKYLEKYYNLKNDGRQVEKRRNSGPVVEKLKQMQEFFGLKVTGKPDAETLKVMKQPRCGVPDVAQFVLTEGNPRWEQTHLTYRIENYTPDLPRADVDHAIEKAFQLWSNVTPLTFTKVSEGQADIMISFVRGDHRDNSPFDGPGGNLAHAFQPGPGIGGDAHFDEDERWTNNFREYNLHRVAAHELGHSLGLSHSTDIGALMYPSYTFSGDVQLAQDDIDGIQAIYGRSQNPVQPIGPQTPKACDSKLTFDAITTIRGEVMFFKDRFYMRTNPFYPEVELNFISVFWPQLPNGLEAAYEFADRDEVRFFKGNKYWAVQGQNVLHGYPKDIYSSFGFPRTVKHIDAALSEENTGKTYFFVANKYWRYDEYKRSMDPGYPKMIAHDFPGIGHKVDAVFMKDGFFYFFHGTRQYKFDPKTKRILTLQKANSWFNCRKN
# Collagenase 3 = Collagenase 3 (Homo sapiens, UniProt P45452); assay: Inhibition of matrix metalloprotease-13
# Stromelysin-1 = Stromelysin-1 (Homo sapiens, UniProt P08254); assay: Inhibition of matrix metalloprotease-3
# Chain of Stromelysin-1 (P08254 whole entry): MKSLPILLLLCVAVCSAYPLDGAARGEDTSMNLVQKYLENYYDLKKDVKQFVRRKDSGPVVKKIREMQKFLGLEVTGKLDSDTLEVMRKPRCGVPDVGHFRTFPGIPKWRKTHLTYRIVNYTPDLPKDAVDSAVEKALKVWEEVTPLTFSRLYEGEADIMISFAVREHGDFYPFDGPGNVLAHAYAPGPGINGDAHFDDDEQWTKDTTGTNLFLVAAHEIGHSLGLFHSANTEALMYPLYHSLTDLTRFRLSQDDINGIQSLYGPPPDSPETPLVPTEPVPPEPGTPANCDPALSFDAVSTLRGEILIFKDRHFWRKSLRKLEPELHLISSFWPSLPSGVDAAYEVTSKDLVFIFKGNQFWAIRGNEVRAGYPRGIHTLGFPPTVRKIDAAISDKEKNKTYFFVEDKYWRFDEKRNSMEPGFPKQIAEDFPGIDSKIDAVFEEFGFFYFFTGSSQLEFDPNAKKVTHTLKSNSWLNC
# [3] = target: 72 kDa type IV collagenase (Mus musculus, UniProt P33434); assay: as §1
# Chain of 72 kDa type IV collagenase (Mus musculus, UniProt P33434) (P33434 whole entry): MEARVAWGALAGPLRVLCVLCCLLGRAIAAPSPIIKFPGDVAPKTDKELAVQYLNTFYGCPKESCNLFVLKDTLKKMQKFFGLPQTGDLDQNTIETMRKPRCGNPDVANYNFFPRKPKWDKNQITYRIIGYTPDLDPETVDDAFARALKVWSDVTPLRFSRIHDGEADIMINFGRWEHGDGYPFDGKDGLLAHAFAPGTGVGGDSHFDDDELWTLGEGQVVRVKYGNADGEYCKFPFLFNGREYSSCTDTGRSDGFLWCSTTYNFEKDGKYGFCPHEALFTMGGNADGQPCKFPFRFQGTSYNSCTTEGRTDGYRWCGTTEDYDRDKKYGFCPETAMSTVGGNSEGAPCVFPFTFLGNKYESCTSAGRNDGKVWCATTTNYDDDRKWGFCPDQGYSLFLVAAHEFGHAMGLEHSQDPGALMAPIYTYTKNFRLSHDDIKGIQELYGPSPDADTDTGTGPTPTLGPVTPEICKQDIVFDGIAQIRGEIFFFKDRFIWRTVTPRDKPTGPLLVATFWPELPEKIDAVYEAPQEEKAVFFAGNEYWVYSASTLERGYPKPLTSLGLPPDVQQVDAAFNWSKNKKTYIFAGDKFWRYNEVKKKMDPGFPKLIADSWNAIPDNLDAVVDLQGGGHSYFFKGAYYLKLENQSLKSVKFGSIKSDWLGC
# [4] = target: Matrix metalloproteinase-9 (Mus musculus, UniProt P41245); assay: Inhibitory concentration required against matrix metalloprotease-9 (MMP-9 gelatinase B)
# Chain of Matrix metalloproteinase-9 (Mus musculus, UniProt P41245) (P41245 whole entry): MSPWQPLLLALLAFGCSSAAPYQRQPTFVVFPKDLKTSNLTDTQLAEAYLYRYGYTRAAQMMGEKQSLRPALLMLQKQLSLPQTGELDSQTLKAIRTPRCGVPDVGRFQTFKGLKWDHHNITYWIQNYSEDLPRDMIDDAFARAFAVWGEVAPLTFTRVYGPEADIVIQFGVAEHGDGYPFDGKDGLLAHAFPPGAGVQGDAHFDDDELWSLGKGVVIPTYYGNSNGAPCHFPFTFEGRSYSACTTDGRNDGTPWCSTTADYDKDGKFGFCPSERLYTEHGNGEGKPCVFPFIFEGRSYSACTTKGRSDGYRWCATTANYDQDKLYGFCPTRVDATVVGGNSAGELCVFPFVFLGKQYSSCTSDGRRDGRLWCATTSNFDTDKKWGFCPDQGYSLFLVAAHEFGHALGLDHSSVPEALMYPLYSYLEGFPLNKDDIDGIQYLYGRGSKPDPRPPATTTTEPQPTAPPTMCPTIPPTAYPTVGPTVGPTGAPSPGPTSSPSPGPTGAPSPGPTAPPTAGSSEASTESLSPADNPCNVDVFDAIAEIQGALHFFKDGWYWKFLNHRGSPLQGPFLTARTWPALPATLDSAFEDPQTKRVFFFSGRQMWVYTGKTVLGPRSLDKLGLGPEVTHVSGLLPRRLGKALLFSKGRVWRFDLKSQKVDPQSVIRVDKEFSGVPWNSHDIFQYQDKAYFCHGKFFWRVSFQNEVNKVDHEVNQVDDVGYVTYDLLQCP
# Chain of Matrix metalloproteinase-9 (Homo sapiens, UniProt P14780) (P14780 whole entry): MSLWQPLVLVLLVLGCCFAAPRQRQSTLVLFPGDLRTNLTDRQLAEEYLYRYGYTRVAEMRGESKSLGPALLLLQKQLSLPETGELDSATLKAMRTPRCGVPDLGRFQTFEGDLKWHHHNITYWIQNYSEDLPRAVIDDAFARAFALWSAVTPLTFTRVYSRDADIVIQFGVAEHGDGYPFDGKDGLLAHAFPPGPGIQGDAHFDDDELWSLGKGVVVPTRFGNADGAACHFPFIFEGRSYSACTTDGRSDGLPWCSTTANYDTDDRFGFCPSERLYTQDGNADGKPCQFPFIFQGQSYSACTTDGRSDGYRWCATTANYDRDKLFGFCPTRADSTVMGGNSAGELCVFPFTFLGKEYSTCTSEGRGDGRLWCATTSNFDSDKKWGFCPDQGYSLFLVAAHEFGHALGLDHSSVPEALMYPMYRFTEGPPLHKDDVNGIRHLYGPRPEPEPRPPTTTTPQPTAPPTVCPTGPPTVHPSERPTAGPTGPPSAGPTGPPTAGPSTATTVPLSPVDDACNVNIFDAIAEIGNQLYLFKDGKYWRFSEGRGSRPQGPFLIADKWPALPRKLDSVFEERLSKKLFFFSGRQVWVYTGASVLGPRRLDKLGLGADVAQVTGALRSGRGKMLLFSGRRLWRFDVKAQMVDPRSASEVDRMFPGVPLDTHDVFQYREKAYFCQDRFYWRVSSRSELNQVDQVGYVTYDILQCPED
# Chain of 72 kDa type IV collagenase (Homo sapiens, UniProt P08253) (P08253 whole entry): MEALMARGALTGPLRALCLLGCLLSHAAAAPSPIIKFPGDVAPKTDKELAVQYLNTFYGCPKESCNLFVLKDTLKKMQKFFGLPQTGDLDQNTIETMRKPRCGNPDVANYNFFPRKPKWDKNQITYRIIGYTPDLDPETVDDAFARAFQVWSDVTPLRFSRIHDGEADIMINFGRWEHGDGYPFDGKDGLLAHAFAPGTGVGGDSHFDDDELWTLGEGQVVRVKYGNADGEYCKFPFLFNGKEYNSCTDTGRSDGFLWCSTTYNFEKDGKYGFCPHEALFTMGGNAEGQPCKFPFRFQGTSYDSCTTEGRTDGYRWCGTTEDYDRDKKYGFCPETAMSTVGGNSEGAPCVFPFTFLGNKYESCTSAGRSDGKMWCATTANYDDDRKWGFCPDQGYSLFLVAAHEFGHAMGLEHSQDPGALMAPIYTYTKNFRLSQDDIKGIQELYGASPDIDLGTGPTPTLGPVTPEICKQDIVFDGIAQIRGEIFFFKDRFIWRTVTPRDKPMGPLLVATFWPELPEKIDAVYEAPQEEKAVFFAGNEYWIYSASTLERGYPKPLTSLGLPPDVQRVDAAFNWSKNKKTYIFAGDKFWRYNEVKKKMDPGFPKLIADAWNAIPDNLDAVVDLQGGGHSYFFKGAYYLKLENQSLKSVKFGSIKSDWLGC
Structure (SMILES),IC50 [1],IC50 [2],IC50 (Interstitial collagenase),IC50 (Collagenase 3),IC50 (Stromelysin-1),IC50 [3],IC50 [4]
CSCC[C@@H](C(=O)NO)N(CC(C)C)S(=O)(=O)c1ccc(-c2ccccc2)cc1,0.7 nM,0.2 nM,156 nM,3 nM,37 nM,,
CC(C)CN([C@@H](CCSCc1ccccc1)C(=O)NO)S(=O)(=O)c1ccc(-c2ccccc2)cc1,,,,3.8 nM,90 nM,4.1 nM,2.5 nM
CC[C@@H](C(=O)NO)N(CC(C)C)S(=O)(=O)c1ccc(OC)cc1,53 nM,7 nM,384 nM,96 nM,45 nM,,
COc1ccc(S(=O)(=O)N(CC(=O)NC(c2ccccc2)c2ccccc2)[C@H](CCSCc2ccccc2)C(=O)NO)cc1,,,,4.5 nM,3.7 nM,2.3 nM,0.5 nM
COc1ccc(S(=O)(=O)N(Cc2cccnc2)[C@@H](C(=O)NO)C(C)C)cc1 [CGS-27023A],,,,,,15 nM,10 nM

# The next lines start with the values.
IC50 [1],IC50 [2],IC50 (Interstitial collagenase),IC50 (Collagenase 3),IC50 (Stromelysin-1),IC50 [3],IC50 [4],Structure (SMILES)
30 nM,0.2 nM,,,20 nM,,,COc1ccc(S(=O)(=O)N(CC(C)C)[C@@H](CCSCc2ccc(-c3ccccc3)cc2)C(=O)NO)cc1
0.7 nM,2.5 nM,104 nM,12 nM,0.7 nM,,,COc1ccc(S(=O)(=O)N(CC(C)C)[C@@H](CCSCc2ccccc2)C(=O)NO)cc1
,8 nM,,,29 nM,,,COc1ccc(S(=O)(=O)N(CC(C)C)[C@@H](CCSCc2ccc(OCc3ccccc3)cc2)C(=O)NO)cc1
